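Dose response: 5 concentrations. Exposure: 48 h. Format: 96-well plates. Endpoint: linear interpolation; highest concentration if not reached. Here, GI50 denotes the concentration required for 50% inhibition of growth.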 Calls of active or inactive are those of the source. No stated cut-off is given here; in the data, active = GI50 up to about 1.1 µM and inactive = higher.
Columns and labels:
Assay in all cases: growth of human tumour cells (NCI), 48 h
[1] = system: DMS-114
[2] = system: SF-539
[3] = system: EKVX
[4] = system: CAKI-1
[5] = system: SNB-78
[6] = system: ACHN
[7] = system: IGROV-1
[8] = system: DLD-1
[9] = system: NCI-H460
[10] = system: HCT-15
[11] = system: HT-29
[12] = system: NCI-H522
[13] = system: U-251
[14] = system: CCRF-CEM
[15] = system: SNB-75
[16] = system: LOX IMVI
[17] = system: HOP-92
[18] = system: NCI-H23
[19] = system: RXF 631
[20] = system: COLO 205
[21] = system: SF-268
[22] = system: A549
[23] = system: OVCAR-3
[24] = system: OVCAR-8
[25] = system: SF-295
[26] = system: HL-60
[27] = system: SN12C
[28] = system: OVCAR-5
[29] = system: UACC-257
[30] = system: SK-MEL-5
[31] = system: UACC-62
[32] = system: KM12
[33] = system: K562
[34] = system: MOLT-4
[35] = system: DMS-273
[36] = system: Malme-3M
[37] = system: UO-31
[38] = system: LXFL 529
[39] = system: SK-OV-3
[40] = system: A498
[41] = system: SNB-19
[42] = system: SW-620
[43] = system: HOP-18
[44] = system: M14
[45] = system: SK-MEL-28
[46] = system: KM-20L2
[47] = system: RPMI-8226
[48] = system: HOP-62
[49] = system: M19-MEL
[50] = system: 786-0
[51] = system: SK-MEL-2
[52] = system: RXF 393
[53] = system: OVCAR-4
[54] = system: HCT-116
[55] = system: TK-10
[56] = system: HCC 2998
[57] = system: SR
[58] = system: NCI-H226

Structure (SMILES): N=C(N)NS(=O)(=O)c1ccc(NC(=O)c2ccc(Cl)c3c(Nc4ccc(S(=O)(=O)N=C(N)N)cc4)c4ccccc4nc23)cc1
- GI50 [1]: > 100 µM (inactive)
- GI50 [2]: 53.7 µM (inactive)
- GI50 [3]: 56.8 µM (inactive)
- GI50 [4]: 45.4 µM (inactive)
- GI50 [5]: 45 µM (inactive)
- GI50 [6]: 95.5 µM (inactive)
- GI50 [7]: 76.4 µM (inactive)
- GI50 [8]: 49.2 µM (inactive)
- GI50 [9]: > 100 µM (inactive)
- GI50 [10]: > 100 µM
- GI50 [11]: > 100 µM (inactive)
- GI50 [12]: 38.2 µM (inactive)
- GI50 [13]: 76.7 µM (inactive)
- GI50 [14]: 43.1 µM (inactive)
- GI50 [15]: 24.5 µM (inactive)
- GI50 [16]: 50.9 µM (inactive)
- GI50 [17]: 28.2 µM (inactive)
- GI50 [18]: > 100 µM (inactive)
- GI50 [19]: > 100 µM (inactive)
- GI50 [20]: 91.4 µM (inactive)
- GI50 [21]: > 100 µM (inactive)
- GI50 [22]: > 100 µM (inactive)
- GI50 [23]: 32.2 µM (inactive)
- GI50 [24]: > 100 µM (inactive)
- GI50 [25]: > 100 µM (inactive)
- GI50 [26]: 41.3 µM (inactive)
- GI50 [27]: > 100 µM (inactive)
- GI50 [28]: > 100 µM (inactive)
- GI50 [29]: 84.5 µM (inactive)
- GI50 [30]: > 10 µM (inactive)
- GI50 [31]: 37.5 µM (inactive)
- GI50 [32]: 24.5 µM (inactive)
- GI50 [33]: 38.1 µM (inactive)
- GI50 [34]: > 100 µM (inactive)
- GI50 [35]: > 100 µM (inactive)
- GI50 [36]: > 100 µM (inactive)
- GI50 [37]: 83.9 µM (inactive)
- GI50 [38]: 52.8 µM (inactive)
- GI50 [39]: > 100 µM (inactive)
- GI50 [40]: > 100 µM (inactive)
- GI50 [41]: 53.3 µM (inactive)
- GI50 [42]: 56.2 µM (inactive)
- GI50 [43]: 68.1 µM (inactive)
- GI50 [44]: > 100 µM (inactive)
- GI50 [45]: 61 µM (inactive)
- GI50 [46]: > 100 µM (inactive)
- GI50 [47]: 85.1 µM (inactive)
- GI50 [48]: 53.2 µM (inactive)
- GI50 [49]: 49.8 µM (inactive)
- GI50 [50]: > 100 µM (inactive)
- GI50 [51]: 39.5 µM (inactive)
- GI50 [52]: > 100 µM (inactive)
- GI50 [53]: > 100 µM (inactive)

Structure (SMILES): CC1=Nc2ccccc2NC(c2ccoc2)C1 (stereo unspecified)
- GI50 [1]: > 100 µM (inactive)
- GI50 [2]: > 100 µM (inactive)
- GI50 [3]: > 100 µM (inactive)
- GI50 [4]: > 100 µM (inactive)
- GI50 [5]: > 100 µM (inactive)
- GI50 [6]: > 100 µM (inactive)
- GI50 [7]: > 100 µM (inactive)
- GI50 [8]: > 100 µM (inactive)
- GI50 [9]: > 100 µM (inactive)
- GI50 [54]: > 100 µM (inactive)
- GI50 [10]: > 100 µM
- GI50 [11]: > 100 µM (inactive)
- GI50 [12]: > 100 µM (inactive)
- GI50 [13]: > 100 µM (inactive)
- GI50 [14]: > 100 µM (inactive)
- GI50 [15]: > 100 µM (inactive)
- GI50 [16]: > 100 µM (inactive)
- GI50 [55]: > 100 µM (inactive)
- GI50 [17]: > 100 µM (inactive)
- GI50 [18]: > 100 µM (inactive)
- GI50 [19]: > 100 µM (inactive)
- GI50 [20]: > 100 µM (inactive)
- GI50 [21]: > 100 µM (inactive)
- GI50 [22]: > 100 µM (inactive)
- GI50 [23]: > 100 µM (inactive)
- GI50 [24]: > 100 µM (inactive)
- GI50 [25]: > 100 µM (inactive)
- GI50 [26]: > 100 µM (inactive)
- GI50 [27]: > 100 µM (inactive)
- GI50 [28]: > 100 µM (inactive)
- GI50 [29]: > 100 µM (inactive)
- GI50 [30]: > 100 µM (inactive)
- GI50 [56]: > 100 µM (inactive)
- GI50 [31]: > 100 µM (inactive)
- GI50 [32]: > 100 µM (inactive)
- GI50 [33]: > 100 µM (inactive)
- GI50 [34]: > 100 µM (inactive)
- GI50 [35]: > 100 µM (inactive)
- GI50 [36]: > 100 µM (inactive)
- GI50 [37]: > 100 µM (inactive)
- GI50 [38]: > 100 µM (inactive)
- GI50 [39]: > 100 µM (inactive)
- GI50 [40]: > 100 µM (inactive)
- GI50 [41]: > 100 µM (inactive)
- GI50 [42]: > 100 µM (inactive)
- GI50 [43]: > 100 µM (inactive)
- GI50 [44]: > 100 µM (inactive)
- GI50 [45]: > 100 µM (inactive)
- GI50 [46]: > 100 µM (inactive)
- GI50 [57]: > 100 µM (inactive)
- GI50 [58]: > 100 µM (inactive)
- GI50 [47]: > 100 µM (inactive)
- GI50 [48]: > 100 µM (inactive)
- GI50 [49]: > 100 µM (inactive)
- GI50 [50]: > 100 µM (inactive)
- GI50 [51]: > 100 µM (inactive)
- GI50 [52]: > 100 µM (inactive)
- GI50 [53]: > 100 µM (inactive)
